Here are results for 7 molecules from patent publication US6733971B2, “Method for identifying an agent that affects a hedgehog signaling pathway” (priority 1998, dated 2004).

Data set [1] deals with COUP-TFII mRNA. The experiment in a line: COUP-TFII mRNA in P19 cells, RNase protection assay. The format is cell-based, mouse. The note with it: for Shh-induced COUP-TFII mRNA: with 1.0 nM Shh-N. The protocol: The P19 mouse embryo carcinoma cell line which was earlier shown to contain increased levels of COUP-TF transcripts after retinoid treatment was utilized. Jonk, L. J. C., et al., Mechan. of Dev. (1994) 47:81-97). Conditioned media obtained from COS-1 cells transfected with mouse Shh-N cDNA expression plasmid or purified E. coli expressed recombinant Shh-N was used.
Briefly, a total of 20 μg RNA was hybridized to a 450 (FIG. 5A) or 120 (FIG. 7B) nucleotide riboprobe that corresponds to the 5′ untranslated region (UTR) of the COUP-TFII gene along with a 670 (FIG. 5A) or 102 (FIG. 7B) nucleotide riboprobe of the murine Cyclophilin A coding region. The RPA II™ kit from Ambion was used to perform the RNase protection assay. The products were subjected to RNase digestion and analyzed on a 6% urea polyacrylamide gel.
(§1) P-19 cells were treated with phosphatase inhibitors to study the endogenous levels of COUP-TFII mRNA. […] Total RVA was isolated from these cells and 20 μg of RNA was used in a RNase protection assay as described above in Example 6. A region of the murine Cyclophilin A cDNA was used to generate riboprobe and was used as an internal control. P19 cells were co-treated with (FIG. 7C, lane 2, 4, 6, and 7) or without (FIG. 7C, lane 1, 3, and 5) 1.0 nM Shh-N and 5 nM OA (lane 3 and 4), 0.5 nM CyA (FIG. 7C, lane 5 & 6) or 5 nm NoA (FIG. 7C, lane 9). Cells were harvested after 24 hours of treatment and the nuclear extract was obtained for the binding reactions. Extracts were subjected to an EMSA as described earlier.

The test system of data set [2] is ShhRE. The experiment in a line: EMSA of Shh-induced protein binding to radiolabeled ShhRE, P19 nuclear extracts. It counts as cell-based, mouse. The conditions noted are these: 1.0 nM Shh-N, 24 hours. The protocol:
Methods described in Example 6 were used in addition to the following protocols. P19 cells were treated with or without Shh-N for 24 hours and nuclear extracts were obtained and used in an electrophoretic mobility shift assay (EMSA) with radiolabeled ShhRE. The following oligos were used as competitors or probes in these assays; WT ShhRE—GTTCTACATAATGCGCCG—SEQ ID NO:1; mShhRE—GTTCTACgTgATGCGCCG—SEQ ID NO:3; GliRE—[…]—. SEQ ID NO:4, Different amounts of unlabeled Gli response element (GliRE) (FIG. 5C, lane 3, 100X; lane 4, 50X; lane 5, 25X; and lane 6, 10X) or ShhRE (lane 7; 100X, lane 8; 50X and lane 9; 10X) was used as a competitor at the indicated molar excess.
In EMSA, radiolabeled probe was incubated with the nuclear extracts (10 μg) along with 4 μg poly dG-dC in a binding reaction containing 10 mM Tris pH 7.5, 50 mM NaCl, 1 mM EDTA, 1 mM DTT, 0.1 mg/ml BSA, and 5% glycerol. Later the mixture was loaded onto a 5% polyacrylamide gel and the retarded complexes were separated-in 1× TBE buffer and analyzed using autoradiography.
as §1
On the technique in general: Mobility shift assays separate free from complexed probe on a gel.

The subject of data set [3] is Ci. The data set is described as follows: Ci induction in cl-8 cells with or without HH-N conditioned medium, Western blot. The conditions noted are these: up to 100 nM, 4 hours, presence of HH or not. The format is cell-based, Drosophila. The protocol: cl-8 cells were cultured as described in Van Leeuwen, F., et al. Nature, 368:342-344, 1994. Culture and transfection of S2 cells were performed as described in Porter, J. A. et al. Cell, 86: 21-34, 1996. The conditioned medium was made by culturing transfected S2 cells in cl-8 medium, and induced by adding CUSO4, to the final concentration of 0.5 Mm overnight. The conditioned medium was harvested the next day, centrifuged to remove S2 cells and the supernatant was used. To make lysate from cl-8 cells, cl-8 cells were washed, harvested in cold phosphate buffered saline (PBS), and then resuspended in NP-40 lysis buffer (150 Mm NaCl, 50 Mm Tris pH8, 1% NP-40, 1 Mm EDTA, 20 μg/ml aprotinin, 20 μg/ml leupeptin, 1 μg/ml pepstatin A, 2.5 μg/ml antipain, 100 μM PMSF, 50 mM NaF, 5 mM Na2P4O7). Cells were lysed at 4° C. for 10 minutes, then centrifuged at 13,000×g for 10 minutes. The supernatant was saved for Western blot analysis.
SDS-PAGE and protein transfer were carried out by standard methods. The primary antibodies used were: rat monoclonal anti-Ci 2Al 1:20 dilution; mouse monoclonal anti-Ptc 1:1000 dilution; mouse monoclonal anti-actin 1:2500. Secondary antibodies were from Jackson Immunologicals. The filters were developed using SuperSignal from Pierce.
Tautomycin (TAU) and okadaic acid (OA) were purchased from Calbiochem and dissolved in dimethyl sulfoxide (DMSO) to different concentrations. The phosphatase inhibitors were mixed with conditioned medium and the concentration of DMSO was adjusted to 0.2% for each sample. cl-8 cells were incubated with conditioned medium and phosphatase inhibitor mixture for 4 hours and lysed for analysis.
For orientation: A western blot detects proteins with antibodies after separation by electrophoresis.

In data set [4] the target is phosphatase 1 (PP1). The note with it: read-out: IC50, phosphatase 1 (PP1) inhibition; cited from earlier work.
Data set [5] relates to ShhRE. The data set is described as follows: ShhRE-tkCAT reporter mRNA and enzyme activity in P19 cells with cycloheximide. The format is cell-based, mouse. The conditions noted are these: 50 μM for 14 hours. The protocol: Methods described in Example 6 were used in addition to the following protocols. P19 cells were co-transfected with either three copies of the ShhRE or mutant ShhRE (mShhRE) element placed upstream of the tk-CAT along with tk-LUC plasmid as an internal control. Cells were treated with 1.0 nM Shh-N (12 hours) and with or without 50 μM cycloheximide (Chx) for 14 hours and harvested to obtain total RNA. Sixty μg of total RNA from these cells were used in an RNase protection assay. RNase protection assays were performed as described in Example 6. Specific riboprobes were generated to analyze the relative levels of the CAT and LUC mRNA levels. A 255 bp region of the CAT coding sequence or 123 bp of the luciferase coding region was used to generate an antisense riboprobe and was hybridized with 60 μg of total RNA, obtained from transfected P19 cells. The amount (50 μM) and extent (14 hours) of cycloheximide treatment was based on inhibition of protein synthesis as indicated by a significant loss in reporter enzyme activity.

Data set [6] addresses T1, lambda phosphatase (Escherichia phage lambda, UniProt P03772).
T1 sequence (P03772 1-221): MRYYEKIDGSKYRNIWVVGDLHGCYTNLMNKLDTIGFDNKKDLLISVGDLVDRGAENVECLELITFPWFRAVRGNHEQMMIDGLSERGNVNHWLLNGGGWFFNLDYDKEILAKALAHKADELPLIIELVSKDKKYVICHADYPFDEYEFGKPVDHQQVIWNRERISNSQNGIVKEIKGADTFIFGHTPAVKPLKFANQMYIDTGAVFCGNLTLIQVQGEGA
The experiment in a line: Lambda phosphatase treatment of immunoprecipitated Ci, mobility shift. The format is biochemical. The conditions noted are these: 1 mM sodium orthovanadate, 30° C. for 1 hour. The method, then: cl-8 cells were incubated in conditioned medium for 4 hours and lysed on ice for 20 minutes in 1 ml of NP-40 lysis buffer per T75 flask. The lysate was incubated with 100 μl of anti-Ci 2A1 or 0.3 μl of normal rat serum at 4° C. for 2 hours. 50 μl of 50% Protein G beads were added and incubated for 1 hour. The beads were collected and washed in NP-40 lysis buffer, then in lambda phosphatase buffer (50 mM Tris pH 7.8, 5 mM dithiothritol, 20 mM MnCl2, […] bovine serum albumin, 20 μg/ml aprotinin, 20 μg/ml leupeptin, 1 μg/ml pepstatin A, 2.5 μg/ml antipain, 100 μM PMSF). The beads were resuspended in 50 μl of lambda phosphatase buffer, plus 1 mM of sodium orthovanadate or 1.5 μl (30 unit) of lambda phosphatase according to the procedure. Each sample was incubated at 30° C. for 1 hour, then washed in NP-40 lysis buffer, and was boiled in SDS sample buffer for analysis.

The subject of data set [7] is PP1 and PP2A enzyme activity. The experiment in a line: Protein phosphatase assay on nuclear extracts of control and Shh treated P19 cells. The format is biochemical, mouse. The protocol: P19 cells were treated with or without 1 nM Shh for 36 hours and nuclear extracts from these cells were obtained as described earlier. A protein phosphatase assay system™ (Life Technologies, Bethesda) was used to quantitate the phosphatase activity present in the control and induced extracts. P19 cells were treated with or without 1 nM Shh for 36 hours and nuclear extracts from these cells were obtained and incubated with 2 nM OA or 4 nM Inh-2 protein for 15 minutes at 30° C. Results are expressed as mean±sd from three separate experiments.

Where only a bound is given, the exact number is not on record here.

As to `COC[C@@H]([C@H](O)[C@H](O)C(=O)NCC[C@H](C)c1nc(/C=C/C[C@@H]2O[C@]3(C[C@@H](O)[C@@H]2C)O[C@H]([C@H](C[C@H](O)[C@H](C)[C@H](O)[C@H](C)/C=C(C)/C(C)=C/C=C/C(C)=C\C#N)OC)[C@H](OP(=O)(O)O)C3(C)C)co1)N(C)C` [CyA, calyculin A], the “Shh-induced COUP-TFII mRNA” value in data set [1] (0.5 nM for 12 hours) is “complete inhibition”. Also, the “Shh-induced binding to radiolabeled ShhRE” value in data set [2] (0.5 nM) was “abolished”.

Usually IC50 stands for the point on the concentration scale where inhibition reaches its midpoint. With `CO[C@H]([C@H](O)CC(=O)[C@@H](C)[C@@H](O)CC[C@@H](C)[C@@H]1O[C@]2(CC[C@@H](C)[C@H](CC[C@H](C)C(C)=O)O2)CC[C@@H]1C)[C@H](OC(=O)C[C@@H](O)C1=C(C)C(=O)OC1=O)C(C)C` [TAU, Tautomycin], the “effect on Ci” value in data set [3] was “did not to have any effect”. Further, in data set [4], the IC50 was 10 nM.

In the case of `C[C@@H]1C[C@@H]([C@H](O)CC2CC(=O)NC(=O)C2)C(=O)[C@@H](C)C1` [cycloheximide], in data set [5], the “CAT and luciferase activities” value is reported as “inhibited”. Moreover, the “Shh-induced increase in CAT mRNA” value in data set [5] (1 nM Shh-N) is recorded as “not altered”.

As to `[Na+].[Na+].[Na+].[O]=[V]([O-])([O-])[O-]` [sodium orthovanadate], the “effect of lambda phosphatase on Ci mobility” value in data set [6] is recorded as “reversed”.

Take Nor-Okadone [NoA]: in data set [1] (5 nM for 12 hours), the “Shh-induced COUP-TFII mRNA” value was “incapable of inhibiting”. Also, the “Shh-induced binding to radiolabeled ShhRE” value in data set [2] (5 nM) was “unable to inhibit”.

With “Shh-N: purified E. coli expressed recombinant amino-terminal fragment of mouse Sonic hedgehog”, in data set [1] (P19 cells, 24 hours, densitometric analysis), the “concentration at which a significant increase in COUP-TFII mRNA was observed” value was not above 0.2 nM. Besides, in data set [7] (1 nM Shh, 36 hours, P19 nuclear extracts), the “net increase in phosphatase activity after Shh treatment” value stood at 2 fold.

B1: Inhibitor-2: Inh-2 protein, a specific inhibitor of PP1 (protein, UniProt P41236 2-205, looked up)
Protein phosphatase inhibitor …: AASTASHRPIKGILKNKTSTTSSMVASAEQPRGNVDEELSKKSQKWDEMNILATYHPADKDYGLMKIDEPSTPYHSMMGDDEDACSDTEATEAMAPDILARKLAAAEGLEPKYRIQEQESSGEEDSDLSPEEREKKRQFEMKRKLHYNEGLNIKLARQLISKDLHDDDEDEEMLETADGESMNTEESNQGSTPSDQQQNKLRSS
With B1, the Shh-induced phosphatase activity result in data set [7] (4 nM Inh-2 protein, 15 minutes at 30° C.) is on record as “unable to inhibit”.
